Reference: PMC6803969, “Pharmacokinetic Profiling and Simultaneous Determination of Thiopurine Immunosuppressants and Folic Acid by Chromatographic Methods” (Molecules, 2019)

How the values were obtained:
[1] = biological target: human serum albumin (HSA) (Homo sapiens, UniProt P02768); experiment: Protein binding assay, HSA-HPLC (Chiralpak-HSA column); assay type: in vitro ADME; conditions: phosphate buffer pH 7.0/iso-propanol gradient, 25 °C
Protocol: (§1) In this study, the gradient retention times are standardized using a calibration set of compounds with known percentage of plasma protein binding data (PPBlit).
(§2) Validation of the methods was performed by evaluation of retention of warfarin enantiomers. As retention time on HSA and AGP columns is dependent on the injected amount of compound, the smallest possible amount of sample was injected so that the compound would not saturate the specific binding site.
(§3) The interactions of analytes with plasma proteins human serum albumin (HSA) and α1-acid glycoprotein (AGP) have been measured using commercially available chemically bonded HSA (Chiralpak-HSA, 50 × 4.6 mm, 5 μm particle size) and AGP (Chiralpak-AGP, 50 × 4.6 mm, 5 μm particle size) columns obtained by ChromTech (Cedex, France). The mobile phase consisted of 20 mM potassium phosphate buffer with the pH adjusted to 7.0 (A) and iso-propanol (B). The gradient program was as follows: 0–3 min, linear gradient 0–30% B, 3–10 min, isocratic 30% B. The total run time was 15 min to allow re-equilibration of the protein phase with the buffer. Injection volume was set at 10 µL, and the measurements were carried out at 25.0 ± 0.1 °C and at flow rate 1.5 mL/min. The absorbance of the analytes during a chromatographic run was collected at the following wavelengths: 250, 280, 300, 320 and 340 nm.

[2] = RP-HPLC hydrophobicity assay (Symmetry C18 column, methanol/phosphate-buffered saline); assay type: physicochemical; conditions: extrapolated to pure phosphate-buffered saline, 25 °C
Source text: The obtained retention times, tR, were used to calculate log k values according to Equation (3): (3) logk=logtR−t0/t0, with t0 being the retention time of an unretained solute, sodium nitrate. Furthermore, chromatographic parameter of hydrophobicity, log kw C18, was obtained by extrapolation to pure buffer using the linear Equation (4):(4) logk = logkw − SΦ, where S is the slope of the regression line and φ is the concentration (expressed as volume fraction) of methanol.
Hydrophobicity of the compounds was also studied on a reversed-phase Symmetry C18 column (150 × 4.6 mm, 3.5 µm particle size) obtained by Waters (Milford, MA, USA). Methanol-phosphate-buffered saline mixtures were used as mobile phases. The methanol volume fraction was varied from 10% to 50% in 5% steps. Each mobile phase was shaken vigorously, filtrated through cellulose nitrate filter (0.45 μm, Sartorius, Goettingen, Germany) and degassed by sonication (5 min) before use.

[3] = Phospholipid binding assay (IAM-HPLC, IAM.PC.DD2 column); assay type: physicochemical; conditions: for log kw IAM, chromatographic parameter of lipophilicity obtained by IAM-HPLC: phosphate-buffered saline pH 7.4 without organic modifier, 25 °C
Protocol: The binding of compounds to the immobilized artificial membrane (IAM) was measured using commercially available immobilized phosphatidylcholine columns (IAM.PC.DD2, 100 x 4.6 mm, […]) obtained by Regis Technologies (Morton Grove, IL, USA). The mobile phase consisted of phosphate-buffered saline that was filtrated through cellulose nitrate filter and degassed (5 min) by sonication before use.

[4] = RP-TLC hydrophobicity assay (RP-18 plates, methanol/phosphate-buffered saline); assay type: physicochemical; conditions: extrapolated to pure phosphate-buffered saline
Protocol: In reversed-phase chromatography, retention of analytes is governed by hydrophobicity, and this parameter was evaluated using both TLC and HPLC techniques. Due to high affinity of investigated compounds for octadecylsilane chemically bonded to porous silica applied on chromatographic plates, several analyses with mixtures of phosphate-buffered saline with various concentrations of methanol as mobile phase were performed. […] RM values were obtained according to Equation (1):(1) RM=log(1/RF−1), where RF represents the retention factor. Furthermore, chromatographic parameter of hydrophobicity, RMw, was obtained by extrapolation to pure buffer using the linear Equation (2):(2) RM = RMw − SΦ, where S is the slope of the regression line and φ is the concentration (expressed as volume fraction) of methanol.
TLC experiments were performed on commercially available 10 × 10 cm RP-18 TLC plates (Merck, Darmstadt, Germany). Methanol-phosphate-buffered saline mixtures were used as mobile phases. The methanol volume fraction was varied from 20% to 80% in 5% steps. A sufficient amount of mobile phase was placed in a Camag flat-bottom chamber for 10 × 10 cm plates with a stainless-steel lid to have a level of 5 mm. After saturation of chambers with solvent vapor for 30 min, the plates were developed to a distance of 9 cm at room temperature, dried in open air for 5 min and visualized under λ = 254 nm UV light.

[5] = tested on: α1-acid glycoprotein (AGP); experiment: Protein binding assay, AGP-HPLC (Chiralpak-AGP column); conditions: phosphate buffer pH 7.0/iso-propanol gradient, 25 °C
Protocol: as §1, §2, §3

[6] = Extraction solvent evaluation / solubility; assay type: physicochemical
Protocol: Protocols utilizing aqueous or organic solvent extraction solutions (acidic, alkaline or neutral pH) combined with at ambient and elevated temperatures shaking and sonication procedures have all been reported. Therefore, one-variable-at-a-time method was applied to find a ubiquitous method suitable for all investigated analytes. […] Folic acid in solution is known to decompose when exposed to ultraviolet light and/or increased temperature; thus, all experiments were performed at ambient temperature using amber laboratory glassware.

[7] = higher levels of NaOH than 0.02 M (0.05 M and 0.1 M)

human serum albumin (HSA), sequence (P02768 25-609): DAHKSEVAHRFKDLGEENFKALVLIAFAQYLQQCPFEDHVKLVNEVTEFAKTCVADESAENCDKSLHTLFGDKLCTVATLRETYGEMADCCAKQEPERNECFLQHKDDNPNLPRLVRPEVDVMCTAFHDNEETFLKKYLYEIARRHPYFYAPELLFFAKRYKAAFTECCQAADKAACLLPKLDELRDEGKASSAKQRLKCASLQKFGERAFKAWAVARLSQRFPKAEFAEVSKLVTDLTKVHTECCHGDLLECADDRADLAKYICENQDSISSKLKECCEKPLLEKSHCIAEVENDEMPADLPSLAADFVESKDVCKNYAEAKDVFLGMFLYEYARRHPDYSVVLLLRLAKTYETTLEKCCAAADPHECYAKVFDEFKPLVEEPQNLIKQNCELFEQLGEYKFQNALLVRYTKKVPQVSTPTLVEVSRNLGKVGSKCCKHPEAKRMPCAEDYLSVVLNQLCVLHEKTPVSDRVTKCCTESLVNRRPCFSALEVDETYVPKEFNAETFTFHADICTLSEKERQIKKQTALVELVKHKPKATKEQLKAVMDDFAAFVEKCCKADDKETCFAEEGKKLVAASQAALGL

SMILES	PPBHSA, percentage of analyte bound to human serum albumin (HSA) obtained by HSA-HPLC [1] [%]	log kw C18, chromatographic parameter of hydrophobicity obtained by RP-HPLC [2]	difference between log kw C18 and log kw IAM values [3]	log kw IAM, chromatographic parameter of lipophilicity obtained by IAM-HPLC [3]	RMw, chromatographic parameter of hydrophobicity obtained by RP-TLC [4]	PPBAGP, percentage of analyte bound to α1-acid glycoprotein (AGP) obtained by AGP-HPLC [5] [%]	solubility ([6]; in basic aqueous solutions)	extraction efficiency ([6]; in methanol) [%]	solubility ([6]; in organic solvents as well as in water)	extraction efficiency ([6]; in water) [%]	stability in NaOH extraction solution [7]
Nc1nc2ncc(CNc3ccc(C(=O)N[C@@H](CCC(=O)O)C(=O)O)cc3)nc2c(=O)[nH]1 [Folic acid, folic acid]	69.40	0.99	1.25	−0.26	0.57	3.45	soluble in basic aqueous solutions	4.6	slightly soluble	22.4	
Cn1cnc([N+](=O)[O-])c1Sc1ncnc2nc[nH]c12 [Azathioprine, azathioprine]	49.22	1.34		0.68	1.41	75.96					degradation
Sc1ncnc2nc[nH]c12 [6-mercaptopurine]		0.45		−0.19	0.23	22.15					
Nc1nc2nc[nH]c2c(=S)[nH]1 [6-thioguanine]	24.11	0.32		0.03	0.21	45.96					
